Assays:
ABL1 (64-515) [1] = biological target: T1, ABL1 (64-515) (Homo sapiens (Human), UniProt P00519); experiment: Radio ABL1 (64-515) assay (radiometric filter-binding); assay type: biochemical
ABL1 (64-515) [2] = biological target: T1, ABL1 (64-515); experiment: Caliper ABL1 (64-515) assay (microfluidic mobility shift); assay type: biochemical
Protocol: Expression and purification of human ABL was performed using standard expression purification procedures. […] The His-ABL was expressed in E. coli BL21 (DE3) and the ABL proteins were isolated by Ni-affinity on a Ni-NTA column (Qiagen). The His-tag was removed by PreScission protease (GE Healthcare) and the non-phosphoprylated ABL further purified on a Mono Q HR 10/10 (GE Healthcare, mono-phosphorylated ABL is about 10-20% of total ABL protein) and HiLoad 16/60 Superdex 200 size exclusion column (GE Healthcare).
All assays were performed in 384-well microtiter plates. Each assay plate contained 8-point serial dilutions for 40 test compounds, as well as four 8-point serial dilutions of staurosporine as a reference compound, plus 16 high and 16 low controls. Liquid handling and incubation steps were done on a Thermo CatX workstation equipped with Innovadyne Nanodrop Express. Between pipetting steps, tips were cleaned in wash cycles using wash buffer.
The assay plates were prepared by addition of 50 nL per well of compound solution in 90% DMSO. […] Plates with terminated kinase reactions were transferred to the Caliper LC3000 workstations for reading. Phosphorylated and unphosphorylated peptides were separated using the Caliper microfluidic mobility shift technology. Briefly, samples from terminated kinase reactions were applied to the chip. Analytes are transported through the chip by constant buffer flow and the migration of the substrate peptide is monitored by the fluorescence signal of its label. Phosphorylated peptide (product) and unphosphorylated peptide (substrate) are separated in an electric field by their charge/mass ratio. Kinase activities were calculated from the amounts of formed phospho-peptide. IC50 values were determined from percent inhibition values at different compound concentrations by non-linear regression analysis.
Test compounds were dissolved in DMSO (10 mM) and transferred into 1.4 mL flat bottom or V-shaped Matrix tubes carrying a unique 2D matrix. The stock solutions were stored at +2° C. if not used immediately. For the test procedure the vials were defrosted and identified by a scanner whereby a working sheet was generated that guided the subsequent working steps.
Compound dilutions were made in 96-well plates. This format enabled the assay of maximally 40 individual test compounds at 8 concentrations (single points) including 4 reference compounds. The dilution protocol included the production of “pre-dilution plates”, “master plates” and “assay plates”.
Polypropylene 96-well plates were used as pre-dilution plates. […] All dilution steps were done on a HamiltonSTAR robot.
These plates were used directly for the assay which was performed in a total volume of 9.05 μL.

T1 sequence (P00519 64-515): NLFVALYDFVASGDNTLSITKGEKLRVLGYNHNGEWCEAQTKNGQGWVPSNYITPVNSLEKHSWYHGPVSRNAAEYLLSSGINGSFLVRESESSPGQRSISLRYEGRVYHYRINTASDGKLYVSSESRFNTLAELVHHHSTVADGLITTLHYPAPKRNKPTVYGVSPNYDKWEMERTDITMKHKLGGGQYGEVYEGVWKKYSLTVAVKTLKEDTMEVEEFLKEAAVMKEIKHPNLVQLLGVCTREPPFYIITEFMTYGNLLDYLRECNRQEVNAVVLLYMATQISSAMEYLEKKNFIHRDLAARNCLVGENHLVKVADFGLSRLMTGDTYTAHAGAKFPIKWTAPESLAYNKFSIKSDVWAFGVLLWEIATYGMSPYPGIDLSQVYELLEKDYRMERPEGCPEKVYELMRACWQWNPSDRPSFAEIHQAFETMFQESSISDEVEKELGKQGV

In the case of `CCN(CCO)c1ncc(C(=O)Nc2ccc(SC(F)(F)F)cc2)cc1-c1cncnc1` [Example 195, 6-(Ethyl(2-hydroxyethyl)amino)-5-(pyrimidin-5-yl)-N-(4-((trifluoromethyl)thio)phenyl)nicotinamide], the IC50 (ABL1 (64-515) [1]) is reported as 3 nM and the IC50 (ABL1 (64-515) [2]) is reported as < 0.13 nM.
Work on `CCN(CCO)c1ncc(C(=O)Nc2ccc(SC(F)(F)F)cc2)cc1-c1cncc(F)c1` [Example 196, 2-(Ethyl(2-hydroxyethyl)amino)-5′-fluoro-N-(4-((trifluoromethyl)thio)phenyl)-[3,3′-bipyridine]-5-carboxamide] yielded an IC50 (ABL1 (64-515) [1]) of 5.1 nM and an IC50 (ABL1 (64-515) [2]) of 0.7 nM.
`CCN(CCO)c1ncc(C(=O)Nc2ccc(SC(F)(F)F)cc2)cc1-c1cncc(C#N)c1` [Example 197, 5′-Cyano-2-(ethyl(2-hydroxyethyl)amino)-N-(4-((trifluoromethyl)thio)phenyl)-[3,3′-bipyridine]-5-carboxamide] gave an IC50 (ABL1 (64-515) [1]) of 16 nM and an IC50 (ABL1 (64-515) [2]) of 1.8 nM.
`O=C(Nc1ccc(OC(F)(F)F)c(F)c1)c1cnc(N2CC[C@@H](O)C2)c(-c2cncc(F)c2)c1` [Example 199, (R)-5′-Fluoro-N-(3-fluoro-4-(trifluoromethoxy)phenyl)-2-(3-hydroxypyrrolidin-1-yl)-[3,3′-bipyridine]-5-carboxamide] gave an IC50 (ABL1 (64-515) [1]) of 3 nM and an IC50 (ABL1 (64-515) [2]) of 1.2 nM.
Molecule `N#Cc1cncc(-c2cc(C(=O)Nc3ccc(OC(F)(F)F)c(F)c3)cnc2N2CC[C@@H](O)C2)c1` [Example 200, (R)-5′-Cyano-N-(3-fluoro-4-(trifluoromethoxy)phenyl)-2-(3-hydroxypyrrolidin-1-yl)-[3,3′-bipyridine]-5-carboxamide] has an IC50 (ABL1 (64-515) [1]) of 4 nM and an IC50 (ABL1 (64-515) [2]) of 1.2 nM.
With `O=C(Nc1ccc(OC(F)(F)F)c(F)c1)c1cnc(N2CC[C@H](CO)C2)c(-c2cncc(F)c2)c1` [Example 202, (S)-5′-Fluoro-N-(3-fluoro-4-(trifluoromethoxy)phenyl)-2-(3-(hydroxymethyl)pyrrolidin-1-yl)-[3,3′-bipyridine]-5-carboxamide] the IC50 (ABL1 (64-515) [1]) was 3.4 nM and the IC50 (ABL1 (64-515) [2]) was 0.7 nM.
`N#Cc1cncc(-c2cc(C(=O)Nc3ccc(OC(F)(F)F)c(F)c3)cnc2N2CC[C@H](CO)C2)c1` [Example 203, (S)-5′-Cyano-N-(3-fluoro-4-(trifluoromethoxy)phenyl)-2-(3-(hydroxymethyl)pyrrolidin-1-yl)-[3,3′-bipyridine]-5-carboxamide] showed an IC50 (ABL1 (64-515) [1]) of 1 nM and an IC50 (ABL1 (64-515) [2]) of 0.9 nM.
`O=C(Nc1ccc(OC(F)(F)F)c(Cl)c1)c1cnc(N2CC[C@@H](O)C2)c(-c2cncnc2)c1` [Example 204, (R)—N-(3-Chloro-4-(trifluoromethoxy)phenyl)-6-(3-hydroxypyrrolidin-1-yl)-5-(pyrimidin-5-yl)nicotinamide] was tested, and the IC50 (ABL1 (64-515) [1]) was < 3 nM and the IC50 (ABL1 (64-515) [2]) was 4.3 nM.
With `O=C(Nc1ccc(SC(F)(F)F)c(F)c1)c1cnc(N2CC[C@@H](O)C2)c(-c2cncnc2)c1` [Example 205, (R)—N-(3-Fluoro-4-((trifluoromethyl)thio)phenyl)-6-(3-hydroxypyrrolidin-1-yl)-5-(pyrimidin-5-yl)nicotinamide] the IC50 (ABL1 (64-515) [1]) was < 3 nM and the IC50 (ABL1 (64-515) [2]) was < 0.13 nM.
Work on `O=C(Nc1ccc(SC(F)(F)F)c(F)c1)c1cnc(N2CC[C@@H](O)C2)c(-c2cncc(F)c2)c1` [Example 206, (R)-5′-Fluoro-N-(3-fluoro-4-((trifluoromethyl)thio)phenyl)-2-(3-hydroxypyrrolidin-1-yl)-[3,3′-bipyridine]-5-carboxamide] yielded an IC50 (ABL1 (64-515) [1]) of 6 nM and an IC50 (ABL1 (64-515) [2]) of 0.5 nM.
For `N#Cc1cncc(-c2cc(C(=O)Nc3ccc(SC(F)(F)F)c(F)c3)cnc2N2CC[C@@H](O)C2)c1` [Example 207, (R)-5′-Cyano-N-(3-fluoro-4-((trifluoromethyl)thio)phenyl)-2-(3-hydroxypyrrolidin-1-yl)-[3,3′-bipyridine]-5-carboxamide], the IC50 (ABL1 (64-515) [1]) was 3 nM and the IC50 (ABL1 (64-515) [2]) was 1.1 nM.
For `O=C(Nc1ccc(C(F)(F)C(F)(F)F)cc1)c1cnc(N2CC[C@@H](O)C2)c(-c2cncc(F)c2)c1` [Example 209, (R)-5′-Fluoro-2-(3-hydroxypyrrolidin-1-yl)-N-(4-(perfluoroethyl)phenyl)-[3,3′-bipyridine]-5-carboxamide], the IC50 (ABL1 (64-515) [1]) was < 3 nM and the IC50 (ABL1 (64-515) [2]) was 0.5 nM.
`N#Cc1cncc(-c2cc(C(=O)Nc3ccc(C(F)(F)C(F)(F)F)cc3)cnc2N2CC[C@@H](O)C2)c1` [Example 210, (R)-5′-Cyano-2-(3-hydroxypyrrolidin-1-yl)-N-(4-(perfluoroethyl)phenyl)-[3,3′-bipyridine]-5-carboxamide] was tested, and the IC50 (ABL1 (64-515) [1]) was 4 nM and the IC50 (ABL1 (64-515) [2]) was 0.8 nM.
Work on `O=C(Nc1ccc(SC(F)F)cc1)c1cnc(N2CC[C@@H](O)C2)c(-c2cncnc2)c1` [Example 211, (R)—N-(4-((Difluoromethyl)thio)phenyl)-6-(3-hydroxypyrrolidin-1-yl)-5-(pyrimidin-5-yl)nicotinamide] yielded an IC50 (ABL1 (64-515) [1]) of 11 nM and an IC50 (ABL1 (64-515) [2]) of 3.3 nM.
`Cc1ccc(-c2cc(C(=O)Nc3ccc(OC(F)(F)C(F)F)cc3)cnc2N2CC[C@@H](O)C2)cn1` [Example 213, (R)-2-(3-Hydroxypyrrolidin-1-yl)-6′-methyl-N-(4-(1,1,22-tetrafluoroethoxy)phenyl)-[3,3′-bipyridine]-5-carboxamide] showed an IC50 (ABL1 (64-515) [1]) of 7 nM and an IC50 (ABL1 (64-515) [2]) of 16 nM.
For `O=C(Nc1ccc(S(=O)(=O)C(F)(F)F)cc1)c1cnc(N2CC[C@@H](O)C2)c(-c2cncnc2)c1` [Example 214, (R)-6-(3-Hydroxypyrrolidin-1-yl)-5-(pyrimidin-5-yl)-N-(4-((trifluoromethyl)sulfonyl)phenyl)nicotinamide], the IC50 (ABL1 (64-515) [1]) was 8 nM and the IC50 (ABL1 (64-515) [2]) was 8.1 nM.
Work on `O=C(Nc1ccc(SC(F)(F)Cl)cc1)c1cnc(N2CC[C@@H](O)C2)c(-c2cncnc2)c1` [Example 217, (R)—N-(4-((Chlorodifluoromethyl)thio)phenyl)-6-(3-hydroxypyrrolidin-1-yl)-5-(pyrimidin-5-yl)nicotinamide] yielded an IC50 (ABL1 (64-515) [1]) of 2 nM and an IC50 (ABL1 (64-515) [2]) of 0.4 nM.
With `CC(C)(C)Oc1ccc(NC(=O)c2cnc(N3CC[C@@H](O)C3)c(-c3cncnc3)c2)cc1` [Example 219, (R)—N-(4-(tert-Butoxy)phenyl)-6-(3-hydroxypyrrolidin-1-yl)-5-(pyrimidin-5-yl)nicotinamide] the IC50 (ABL1 (64-515) [1]) was 16 nM and the IC50 (ABL1 (64-515) [2]) was 16 nM.
`O=C(Nc1ccc(OC(F)(F)C(F)(F)F)cc1)c1cnc(N2CC[C@@H](O)C2)c(-c2cncnc2)c1` [Example 220, (R)-6-(3-Hydroxypyrrolidin-1-yl)-N-(4-(perfluoroethoxy)phenyl)-5-(pyrimidin-5-yl)nicotinamide] showed an IC50 (ABL1 (64-515) [1]) of 6 nM and an IC50 (ABL1 (64-515) [2]) of 2.3 nM.
`O=C(Nc1ccc(OC(F)(F)C(F)(F)F)cc1)c1cnc(N2CC[C@@H](O)C2)c(-c2cncc(F)c2)c1` [Example 221, (R)-5′-Fluoro-2-(3-hydroxypyrrolidin-1-yl)-N-(4-(perfluoroethoxy)phenyl)-[3,3′-bipyridine]-5-carboxamide] showed an IC50 (ABL1 (64-515) [1]) of 10 nM and an IC50 (ABL1 (64-515) [2]) of 1.3 nM.
For `N[C@]1(C(F)(F)F)CCN(c2ncc(C(=O)Nc3ccc(OC(F)(F)F)cc3)cc2-c2cncnc2)C1` [Example 223, (R)-6-(3-Amino-3-(trifluoromethyl)pyrrolidin-1-yl)-5-(pyrimidin-5-yl)-N-(4-(trifluoromethoxy)phenyl)nicotinamide], the IC50 (ABL1 (64-515) [1]) was 0.2 nM and the IC50 (ABL1 (64-515) [2]) was 10 nM.
With `O=C(Nc1ccc(OC(F)(F)F)cc1)c1cnc(N2CCC(F)(F)C2)c(-c2cncnc2)c1` [Example 224, 6-(3,3-Difluoropyrrolidin-1-yl)-5-(pyrimidin-5-yl)-N-(4-(trifluoromethoxy)phenyl)nicotinamide] the IC50 (ABL1 (64-515) [1]) was 1.6 nM and the IC50 (ABL1 (64-515) [2]) was 4.7 nM.
With `CN(C)[C@H]1CN(c2ncc(C(=O)Nc3ccc(OC(F)(F)F)cc3)cc2-c2cncnc2)C[C@@H]1O` [Example 225, 6-((3S,4S)-3-(Dimethylamino)-4-hydroxypyrrolidin-1-yl)-5-(pyrimidin-5-yl)-N-(4-(trifluoromethoxy)phenyl)nicotinamide] the IC50 (ABL1 (64-515) [1]) was 2 nM and the IC50 (ABL1 (64-515) [2]) was 8.5 nM.
With `N[C@@H]1[C@H]2CN(c3ncc(C(=O)Nc4ccc(OC(F)(F)F)cc4)cc3-c3cncnc3)C[C@@H]12` [Example 227] the IC50 (ABL1 (64-515) [1]) was 0.9 nM and the IC50 (ABL1 (64-515) [2]) was 1.6 nM.
In the case of `O=C(Nc1ccc(OC(F)(F)F)cc1)c1cnc(N2Cc3cn[nH]c3C2)c(-c2cncnc2)c1` [Example 228], the IC50 (ABL1 (64-515) [1]) is reported as 1 nM and the IC50 (ABL1 (64-515) [2]) is reported as 1.1 nM.
Molecule `O=C(Nc1ccc(OC(F)(F)F)cc1)c1cnc(N2CCNC3(CC3)C2)c(-c2cncnc2)c1` [Example 229] has an IC50 (ABL1 (64-515) [1]) of 1 nM and an IC50 (ABL1 (64-515) [2]) of 2.4 nM.
`CN(C)C1CN(c2ncc(C(=O)Nc3ccc(OC(F)(F)F)cc3)cc2-c2cncnc2)C1` [Example 232] showed an IC50 (ABL1 (64-515) [1]) of 6 nM and an IC50 (ABL1 (64-515) [2]) of 5.3 nM.
`O=C(Nc1ccc(OC(F)(F)F)cc1)c1cnc(N2CCCOCC2)c(-c2cncnc2)c1` [Example 233] was tested, and the IC50 (ABL1 (64-515) [1]) was 2.4 nM and the IC50 (ABL1 (64-515) [2]) was 4 nM.
Molecule `O=C(Nc1ccc(OC(F)(F)F)cc1)c1cnc(N2C[C@@H](O)[C@@H](O)C2)c(-c2cncc(F)c2)c1` [Example 235, 2-(cis-3,4-Dihydroxypyrrolidin-1-yl)-5′-fluoro-N-(4-(trifluoromethoxy)phenyl)-[3,3′-bipyridine]-5-carboxamide] has an IC50 (ABL1 (64-515) [1]) of 2 nM and an IC50 (ABL1 (64-515) [2]) of 1.8 nM.
With `CN(C)[C@H]1CN(c2ncc(C(=O)Nc3ccc(OC(F)(F)F)cc3)cc2-c2cncc(F)c2)C[C@@H]1O` [Example 236, 2-((3S,4S)-3-(Dimethylamino)-4-hydroxypyrrolidin-1-yl)-5′-fluoro-N-(4-(trifluoromethoxy)phenyl)-[3,3′-bipyridine]-5-carboxamide] the IC50 (ABL1 (64-515) [1]) was 3 nM and the IC50 (ABL1 (64-515) [2]) was 1.4 nM.
For `NCC1CN(c2ncc(C(=O)Nc3ccc(OC(F)(F)F)cc3)cc2-c2cncc(F)c2)CC1O` (stereo not drawn) [Example 237, 2-(3-(Aminomethyl)-4-hydroxypyrrolidin-1-yl)-5′-fluoro-N-(4-(trifluoromethoxy)phenyl)-[3,3′-bipyridine]-5-carboxamide], the IC50 (ABL1 (64-515) [1]) was 0.6 nM and the IC50 (ABL1 (64-515) [2]) was 1.2 nM.
`NC1CN(c2ncc(C(=O)Nc3ccc(OC(F)(F)F)cc3)cc2-c2cncc(F)c2)C1` [Example 238, 2-(3-Aminoazetidin-1-yl)-5′-fluoro-N-(4-(trifluoromethoxy)phenyl)-[3,3′-bipyridine]-5-carboxamide] was tested, and the IC50 (ABL1 (64-515) [1]) was 2 nM and the IC50 (ABL1 (64-515) [2]) was 2.6 nM.
Work on `CN(C)C1CN(c2ncc(C(=O)Nc3ccc(OC(F)(F)F)cc3)cc2-c2cncc(F)c2)C1` [Example 239, 2-(3-(Dimethylamino)azetidin-1-yl)-5′-fluoro-N-(4-(trifluoromethoxy)phenyl)-[3,3′-bipyridine]-5-carboxamide] yielded an IC50 (ABL1 (64-515) [1]) of 4 nM and an IC50 (ABL1 (64-515) [2]) of 2.6 nM.

— US9278981B2, “Compounds and compositions for inhibiting the activity of ABL1, ABL2 and BCR-ABL1” (Novartis AG, priority 2012, dated 2016)
